Assay results from patent US20240174637A1, “DEGRADERS OF GRK2 AND USES THEREOF” (Sonata Therapeutics, Inc., priority 2021, published 2024).

Columns and labels:
[1] = biological target: T1, GRK2 (Homo sapiens, UniProt P25098); assay: ADPGlo GRK2 Inhibition Assay (Example 2); assay type: biochemical; details: ADP-Glo, 10 μM ATP; read-out: ADP Glo Enzymatic GRK2 Assay: IC50 (nM) (Example 2)
T1 sequence (P25098 1-689): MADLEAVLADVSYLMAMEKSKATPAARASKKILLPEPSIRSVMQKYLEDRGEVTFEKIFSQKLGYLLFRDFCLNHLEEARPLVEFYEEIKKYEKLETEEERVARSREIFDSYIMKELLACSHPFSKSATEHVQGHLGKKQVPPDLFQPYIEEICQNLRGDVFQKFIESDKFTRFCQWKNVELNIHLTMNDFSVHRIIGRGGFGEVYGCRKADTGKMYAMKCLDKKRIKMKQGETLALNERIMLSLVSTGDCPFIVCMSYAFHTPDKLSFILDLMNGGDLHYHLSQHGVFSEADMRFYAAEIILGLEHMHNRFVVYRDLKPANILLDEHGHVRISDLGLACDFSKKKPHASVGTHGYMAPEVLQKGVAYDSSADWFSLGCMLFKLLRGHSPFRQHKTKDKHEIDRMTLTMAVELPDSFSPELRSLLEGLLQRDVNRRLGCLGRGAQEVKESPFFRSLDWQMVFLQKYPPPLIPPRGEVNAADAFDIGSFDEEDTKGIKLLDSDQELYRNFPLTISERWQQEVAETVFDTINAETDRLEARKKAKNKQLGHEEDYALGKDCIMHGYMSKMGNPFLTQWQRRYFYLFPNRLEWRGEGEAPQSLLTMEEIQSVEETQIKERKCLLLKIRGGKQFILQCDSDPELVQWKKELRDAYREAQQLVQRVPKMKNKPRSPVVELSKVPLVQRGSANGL
Protocol: Assay: GRK2 (7.5 nM) was incubated with ATP (10 μM) and GRKtide (0.3 mg/mL) in 5 μL of assay buffer (see above) for 180 min at room temperature. HTS was performed using 1 μM compound. Compounds were dissolved in 100% DMSO, serially diluted tree-fold from 100 μM concentration to 46 nM and transferred (50 nL) into assay ready plate.
(§1) Materials: GRK2 was purchased from SignalChem (Cat #A14-10G, Lot #X645-3). Substrate GRKtide was from SignalChem (Cat #G46-58, Lot #R339-6). ADP-Glo Kinase Assay from Promega (Cat #V9102). Assay buffer consisted of 25 mM HEPES (pH7.5), 10 mM MgCl2, 0.01% Tween-20, 1 mM DDT. 384-well white plates were from Greiner Bio-Rad (Item #784075).
HTS protocol: Take 384 well plate with 50 nL of compound in columns 3-22/DMSO solution 1-2,23-24. Add 2.5 μL assay buffer to columns 23 and 24 using Thermo Scientific Multidrop Combi Dispenser. Add 2.5 μL of 2× enzyme solution (15 nM in 1× assay buffer) using Thermo Scientific Multidrop Combi Reagent Dispenser to all columns except of 23 and 24. Incubate for 15 minutes. Fill plate with 2.5 μL of 2× substrate mix (20 μM ATP and 0.6 mg/mL GRKtide in 1× assay buffer) using Thermo Scientific Multidrop Combi Reagent Dispenser. Spin 15 seconds at 1000 rpm and incubate for 180 min at room temperature. Add 5 μL ADP-Glo reagent to all the wells. Spin 15 seconds at 1000 rpm and incubate for 40 min at room temperature. Add 10 μL Detection solution to all the wells. Incubate for 30 min at room temperature. Read plate in Luminescent mode on BMG PheraStar FSX (gain=3600).
Data Analysis: Data were analyzed in GraphPad Prism 8.0.2. Each HTS plate contains compounds in columns 3-22, controls (enzyme, no compound) in columns 1 and 2, and blanks (no enzyme) in columns 23 and 24. HTS percent inhibition was calculated for each compound from the signal in luminescence units and the mean of the plate controls and the mean of the plate blanks using the following equation: % Inhibition=100*(1−((signal−blank mean)/(control mean−blank mean))). At the final stage of data processing, we obtain dose-response curves, tables and SDF-files with the results of screening for each substance.

[2] = test system: PAXF1657 KO Clone #4; assay: 7-day cellular proliferation assay (CellTiter-Glo), PAXF1657 KO Clone #4; assay type: cell-based; details: 168 h, 7-day, read-out: 7-day proliferation assay: IC50 GeoMean (uM) [Cell Line: PAXF1657 KO Clone #4]
Summary of the method: (§2)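 Cells plated at 500 per well and attached overnight. Next, 10-point inhibitor series added (30 μM-0.0002 μM, 0.3% DMSO) and a day-0 viability plate read. Then, after 3 days, medium with fresh compound. Finally, viability after 4 more days via CellTiter-Glo.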

[3] = test system: PAXF1657 EV; assay: 7-day cellular proliferation assay (CellTiter-Glo), PAXF1657 EV; assay type: cell-based; details: 168 h, 7-day, read-out: 7-day proliferation assay: IC50 GeoMean (uM) [Cell Line: PAXF1657 EV]
Summary of the method: as §2

[4] = biological target: T1, GRK2; assay: GRK2 Degradation Assay and Western Blot in PAXF1657 cells; assay type: cell-based; parameters: endogenous in cells; host or cells: PAXF1657; details: for inhibition at 0.3 µM: read-out: % GRK2 degradation at 0.3 uM in PAXF1657 EV (24 hrs); for inhibition at 1 µM: read-out: % GRK2 degradation at 1 uM in PAXF1657 EV (24 hrs); for inhibition at 3 µM: read-out: % GRK2 degradation at 3 uM in PAXF1657 EV (24 hrs)
Summary of the method: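 GRK2 degradation judged by immunoblot: NP40 lysates separated by SDS-PAGE and probed for GRK2 and β-actin, with HRP/ECL detection. Lysates came from PAXF1657 cells exposed to 0–10 μM compound for 6–24 h after reaching 70% confluency.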

[5] = biological target: T1, GRK2; assay: Second ADPGlo GRK2 Inhibition Assay (Example 3); assay type: biochemical; details: ADP-Glo, 20 μM ATP; read-out: Second ADPGlo Enzymatic GRK2 Assay: IC50 (nM) (Example 3)
Protocol: Assay: GRK2 (2 nM) was incubated with ATP (20 μM) and GRKtide (1.2 mg/mL) in 11 μL of assay buffer (see above) for 180 min at room temperature. Compounds were dissolved in 100% DMSO, serially diluted 3.16-fold from 100 μM with 10 concentration points and transferred as 100× into assay plate (final compounds concentration in the reaction plate from 1 μM).
as §1, with “of 20” for “of 25”, “(pH7.5), 20” for “(pH7.5), 10”, “Tween-20, 0.05” for “Tween-20, 1”, “from Corning (Cat #4513).” for “from Greiner Bio-Rad (Item #784075).”
HTS protocol: Add 5.5 μL of 2× substrate-enzyme mix into all columns except of 1-2 and 24 of reaction plate. Spin 15 seconds at 200 g. Transfer 1 ul of compounds from the plate with serial dilutions (384 well plate with 22 uL of compound in columns 3-22/DMSO solution 1-2,23-24) to Dilution plate (384 well plate with 49 uL of buffer with 2×40 μM ATP). After mixing transfer 5.5 ul from Dilution plate to Reaction plate (to 5.5 μL of 2× substrate-enzyme mix). Spin 15 seconds at 200 g and incubate for 180 min at room temperature with sealing. Add 3 μL ADP-Glo reagent to all the wells. Spin 15 seconds at 200 g and incubate for 40 min at room temperature. Add 6 μL Detection solution to all the wells. Incubate for 30 min at room temperature. Read plate using ClarioStar Plus (BMG).
Data Analysis: Data were analyzed in GraphPad Prism 5.0.2. Each HTS plate contains compounds in columns 3-22, controls (enzyme, no compound) in column 23, and blanks (no enzyme) in columns 2. HTS percent inhibition was calculated for each compound from the signal in luminescence units and the mean of the plate controls and the mean of the plate blanks using the following equation: % Inhibition=100*(1-(signal-blank mean)/(control mean-blank mean)).

| IC50 [1] [nM] | inhibition at 0.3 µM ([4]; PAXF1657 EV, 24 hrs) [%] | inhibition at 1 µM ([4]; PAXF1657 EV, 24 hrs) [%] | inhibition at 3 µM ([4]; PAXF1657 EV, 24 hrs) [%] | % GRK2 degradation at 0.03 uM in PAXF1657 EV (24 hrs) ([4]; 0.03 uM, PAXF1657 EV, 24 hrs) [%] | % GRK2 degradation at 0.1 uM in PAXF1657 EV (24 hrs) ([4]; 0.1 uM, PAXF1657 EV, 24 hrs) [%] | % GRK2 degradation at 10 uM in PAXF1657 EV (24 hrs) ([4]; 10 uM, PAXF1657 EV, 24 hrs) [%] | GRK2 degradation, dose dependence (FIGS. 1A-1D) ([4]; 24-hour treatment in PAXF1657 cells) | IC50 [5] [nM] | SMILES | IC50 [2] [µM] | IC50 [3] [µM] |
| --- | --- | --- | --- | --- | --- | --- | --- | --- | --- | --- | --- |
| < 100 | – | – | – | – | – | – | – | – | Cn1c(CNc2cccc(C(=O)NCc3cccc(OCCCCCCOCCOCCOCCOCC(=O)Nc4cccc5c4CN(C4CCC(=O)NC4=O)C5=O)c3)c2)nnc1-c1ccncn1 (centres unmarked) [Compound D71] | – | – |
| < 100 | 36 | 59 | 64 | – | – | – | – | – | Cn1c(CNc2cccc(C(=O)NCc3cccc(OCCCCCCOCCOCC(=O)Nc4cccc5c4CN(C4CCC(=O)NC4=O)C5=O)c3)c2)nnc1-c1ccncn1 (centres unmarked) [Compound D72] | 1 to 10 | 1 to 10 |
| – | 48 | 67 | 76 | 15 | 28 | 76 | Dose dependent | < 100 | Cn1c(CNc2cccc(C(=O)NCc3cccc(OCCCCCCOCCOCCOCCCCCC(=O)Nc4cccc5c4CN(C4CCC(=O)NC4=O)C5)c3)c2)nnc1-c1ccncn1 (centres unmarked) [Compound D73] | > 10 | 1 to 10 |
| – | -4 | -1 | -7 | – | – | – | – | < 100 | Cc1ncsc1-c1ccc(CNC(=O)[C@@H]2C[C@@H](O)CN2C(=O)[C@@H](NC(=O)CCCOCCOCCOCCCCCCOc2cccc(CNC(=O)c3cccc(NCc4nnc(-c5ccncn5)n4C)c3)c2)C(C)(C)C)cc1 [Compound D77] | > 10 | < 1 |
| – | -1 | 28 | 57 | – | – | – | – | < 100 | Cc1ncsc1-c1ccc(CNC(=O)[C@@H]2C[C@@H](O)CN2C(=O)[C@@H](NC(=O)CCCCc2cn(CCCCCCCOc3cccc(CNC(=O)c4cccc(NCc5nnc(-c6ccncn6)n5C)c4)c3)nn2)C(C)(C)C)cc1 [Compound D82] | > 10 | < 1 |
| – | 2 | 25 | 39 | – | – | – | – | < 100 | Cc1ncsc1-c1ccc(CNC(=O)[C@@H]2C[C@@H](O)CN2C(=O)[C@@H](NC(=O)CCCc2cn(CCCCCCCOc3cccc(CNC(=O)c4cccc(NCc5nnc(-c6ccncn6)n5C)c4)c3)nn2)C(C)(C)C)cc1 [Compound D83] | > 10 | 1 to 10 |
| – | 17 | 34 | 30 | – | – | – | – | < 100 | Cc1ncsc1-c1ccc(CNC(=O)[C@@H]2C[C@@H](O)CN2C(=O)[C@@H](NC(=O)COCCCOCCCCCOc2cccc(CNC(=O)c3cccc(NCc4nnc(-c5ccncn5)n4C)c3)c2)C(C)(C)C)cc1 [Compound D85, (2S,4R)-1-((S)-3,3-dimethyl-2-(2-(3-((5-(3-((3-(((4-methyl-5-(pyrimidin-4-yl)-4H-1,2,4-triazol-3-yl)methyl)amino)benzamido)methyl)phenoxy)pentyl)oxy)propoxy)acetamido)butanoyl)-4-hydroxy-N-(4-(4-methylthiazol-5-yl)benzyl)pyrrolidine-2-carboxamide] | > 10 | 1 to 10 |
| – | 19 | 31 | 6 | – | – | – | – | < 100 | Cc1ncsc1-c1ccc(CNC(=O)[C@@H]2C[C@@H](O)CN2C(=O)[C@@H](NC(=O)CCCCCCOc2cccc(CNC(=O)c3cccc(NCc4nnc(-c5ccncn5)n4C)c3)c2)C(C)(C)C)cc1 [Compound D96] | > 10 | 1 to 10 |
| – | – | 11 | – | – | – | – | – | < 100 | Cc1ncsc1-c1ccc(CNC(=O)[C@@H]2C[C@@H](O)CN2C(=O)[C@@H](NC(=O)CCCOc2cccc(CNC(=O)c3cccc(NCc4nnc(-c5ccncn5)n4C)c3)c2)C(C)(C)C)cc1 [Compound D97] | 1 to 10 | > 10 |
| – | – | 44 | 13 | – | – | – | – | < 100 | Cc1ncsc1-c1ccc(CNC(=O)[C@@H]2C[C@@H](O)CN2C(=O)[C@@H](NC(=O)CCCCCOCCOCCOCCCCCCOc2cccc(CNC(=O)c3cccc(NCc4nnc(-c5ccncn5)n4C)c3)c2)C(C)(C)C)cc1 [Compound D99] | 1 to 10 | < 1 |
